Reference: patent US7012089B2, “[1,4]Diazocino[7,8,1-hi]indole derivatives as antipsychotic and antiobesity agents” (Wyeth, priority 2002, dated 2006)
Counter-ions that a name gives are not always drawn. Like-named read-outs stand apart in the source and are kept apart here.

Experiments:
[1] = target: T1, human 5-hydroxytryptamine-2C (h-5-HT2C) receptor (Homo sapiens, UniProt P28335); test: [125I]DOI binding to membranes of CHO cells expressing the h-5-HT2C receptor; settings: 5-HT2c Affinity KI (nM), displacement of [125I]DOI, CHO cell membranes
T1 sequence (P28335 33-458): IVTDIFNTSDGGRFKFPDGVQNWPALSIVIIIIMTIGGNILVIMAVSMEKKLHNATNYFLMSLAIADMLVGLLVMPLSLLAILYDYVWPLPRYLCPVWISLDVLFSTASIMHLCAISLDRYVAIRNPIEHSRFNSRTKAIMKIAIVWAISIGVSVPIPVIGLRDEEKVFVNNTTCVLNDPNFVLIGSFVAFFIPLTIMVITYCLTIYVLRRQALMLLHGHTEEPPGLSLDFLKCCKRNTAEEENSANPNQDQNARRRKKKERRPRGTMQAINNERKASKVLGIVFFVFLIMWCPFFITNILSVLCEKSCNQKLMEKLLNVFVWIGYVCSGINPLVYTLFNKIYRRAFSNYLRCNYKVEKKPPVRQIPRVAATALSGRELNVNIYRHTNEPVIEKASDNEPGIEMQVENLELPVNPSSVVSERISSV

human 5-HT2C receptor = target: T2, human 5-HT2C receptor (Homo sapiens, UniProt P28335); test: 5-HT2C receptor-stimulated calcium mobilization (FLIPR) in CHO cells; format: cell-based; settings: for Emax: CHO, read-out: 5-HT2C Function Emax (%)
T2 sequence (P28335 33-458): T1 sequence (P28335 33-458)

[2] = calcium mobilization, CHO cells stably expressing human 5-HT2C, read-out: 5-HT2C Function EC50

c1cc2c3c(c1)c1c(n3CCNCC2)CCC1 (as salt: fumarate) [Example 2, 2,3,4,5,10,11-Hexahydro-1H,9H-cyclopenta[b][1,4]diazocino[7,8,1-hi]indole]
melting point: 180 to 183 °C

CN1CCc2cccc3c2N(CC1)C1CCCC31 (stereo not shown) (as salt: fumarate) [Example 3, 3-Methyl-2,3,4,5,9,10,11,11a-octahydro-1H,8bH-cyclopenta[b][1,4]diazocino[7,8,1-hi]indole]
melting point: 159 to 161 °C

c1cc2c3c(c1)c1c(n3CCNCC2)CCCC1 (as salt: fumarate) [Example 6, 2,3,4,5,9,10,11,12-Octahydro-1H-[1,4]diazocino[7,8,1-jk]carbazole]
melting point: 174 to 176 °C

CN1CCc2cccc3c2N(CC1)C1CCCCC31 (stereo not shown) (as salt: fumarate) [Example 7, 3-Methyl-2,3,4,5,8b,9,10,11,12,12a-decahydro-1H-[1,4]diazocino[7,8,1-jk]carbazole]
melting point: 150 to 153 °C

c1cc2c3c(c1)C1CCCCC1N3CCNCC2 (stereo not shown) (as salt: fumarate) [Example 8, 2,3,4,5,8b,9,10,11,12,12a-Decahydro-1H-[1,4]diazocino[7,8,1-jk]carbazole]
melting point: 169 to 171 °C

CN1CCc2cccc3c4c(n(c23)CC1)CCCCC4 (as salt: fumarate) [Example 9, 3-Methyl-2,3,4,5,10,11,12,13-octahydro-1H,9H-cyclohepta[b][1,4]diazocino[7,8,1-hi]indole]
melting point: 190 to 192 °C

c1cc2c3c(c1)c1c(n3CCNCC2)CCCCC1 (as salt: fumarate) [Example 10, 2,3,4,5,10,11,12,13-Octahydro-1H,9H-cyclohepta[b]1,4]diazocino[7,8,1-hi]indole]
melting point: 216 to 218 °C

CN1CCc2c(Cl)ccc3c2N(CC1)C1CCCC31 (stereo not shown) (as salt: fumarate) [Example 15, 6-Chloro-3-Methyl-2,3,4,5,9,10,11,11a-octahydro-1H,8bH-cyclopenta[b][1,4]diazocino[7,8,1-hi]indole]
melting point: 196 to 199 °C

CN1CCc2c(Cl)ccc3c2N(CC1)C1CCCCCC31 (stereo not shown) (as salt: fumarate) [Example 16, 6-Chloro-3-methyl-2,3,4,5,9,10,11,12,13,13a-decahydro-1H,8bH-cyclohepta[b][1,4]diazocino[7,8,1-hi]indole]
melting point: 190 to 193 °C

Clc1ccc2c3c(n4c2c1CCNCC4)CCC3 (as salt: fumarate) [Example 17, 6-Chloro-2,3,4,5,10,11-hexahydro-1H,9H-cyclopenta[b][1,4]diazocino[7,8,1-hi]indole]
melting point: 188 to 190 °C

Clc1ccc2c3c(n4c2c1CCNCC4)CCCC3 (as salt: fumarate) [Example 18, 6-Chloro-2,3,4,5,9,10,11,12-octahydro-1H-[1,4]diazocino[7,8,1-jk]carbazole]
melting point: 208 to 210 °C

Clc1ccc2c3c(n4c2c1CCNCC4)CCCCC3 (as salt: fumarate) [Example 19, 6-Chloro-2,3,4,5,10,11,12,13-octahydro-1H,9H-cyclohepta[b][1,4]diazocino[7,8,1-hi]indole]
melting point: 208 to 210 °C

Clc1ccc2c3c1CCNCCN3C1CCCC21 (stereo not shown) (as salt: fumarate) [Example 20, 6-Chloro-2,3,4,5,9,10,11,11a-octahydro-1H,8bH-cyclopenta[b][1,4]diazocino[7,8,1-hi]indole]
melting point: 188 to 189 °C

CCN1CCc2c(Cl)ccc3c2N(CC1)C1CCCC31 (stereo not shown) (as salt: fumarate) [Example 21, 6-Chloro-3-ethyl-2,3,4,5,9,10,11,11a-octahydro-1H,8bH-cyclopenta[b][1,4]diazocino[7,8,1-hi]indole]
melting point: 199 to 201 °C

Clc1ccc2c3c1CCNCCN3C1CCCCCC21 (stereo not shown) (as salt: fumarate) [Example 22, 6-Chloro-2,3,4,5,9,10,11,12,13,13a-decahydro-1H,8bH-cyclohepta[b][1,4]diazocino[7,8,1-hi]indole]
melting point: 168 to 170 °C

CCN1CCc2c(Cl)ccc3c2N(CC1)C1CCCCC31 (stereo not shown) (as salt: fumarate) [Example 23, 6-Chloro-3-ethyl-2,3,4,5,8b,9,10,11,12,12a-decahydro-1H-[1,4]diazocino[7,8,1-jk]carbazole]
melting point: 184 to 187 °C

CN1CCc2ccc(F)c3c4c(n(c23)CC1)CCC4 (as salt: fumarate) [Example 24, 8-Fluoro-3-methyl-2,3,4,5,10,11-hexahydro-1H,9H-cyclopenta[b][1,4]diazocino[7,8,1-hi]indole]
melting point: 168 to 170 °C

CN1CCc2ccc(F)c3c4c(n(c23)CC1)CCCC4 (as salt: fumarate) [Example 25, 8-Fluoro-3-methyl-2,3,4,5,9,10,11,12-octahydro-1H-[1,4]diazocino[7,8,1-jk]carbazole]
melting point: 206 to 208 °C

CN1CCc2ccc(F)c3c2N(CC1)C1CCCC31 (stereo not shown) (as salt: fumarate) [Example 26, 8-Fluoro-3-methyl-2,3,4,5,9,10,11,11a-octahydro-1H,8bH-cyclopenta[b][1,4]diazocino[7,8,1-hi]indole]
melting point: 180 to 182 °C

CN1CCc2ccc(Cl)c3c4c(n(c23)CC1)CCC4 [Example 34, 8-Chloro-3-methyl-2,3,4,5,10,11-hexahydro-1H,9H-cyclopenta[b][1,4]diazocino[7,8,1-hi]indole]
Ki [1]: 15 nM
EC50 (human 5-HT2C receptor): 81 nM
Emax (human 5-HT2C receptor): 40%

CN1CCc2ccc(Cl)c3c4c(n(c23)CC1)CCCC4 [Example 35, 8-Chloro-3-methyl-2,3,4,5,9,10,11,12-octahydro-1H-[1,4]diazocino[7,8,1-jk]carbazole]
Ki [1]: 11 nM
Emax (human 5-HT2C receptor): 50%
EC50 (human 5-HT2C receptor; [2]): 287 nM

CN1CCc2ccc(Cl)c3c2N(CC1)C1CCCC31 (stereo not shown) [Example 36, 8-Chloro-3-methyl-2,3,4,5,9,10,11,11a-octahydro-1H,8bH-cyclopenta[b][1,4]diazocino[7,8,1-hi]indole]
Ki [1]: 12 nM
Emax (human 5-HT2C receptor): 40%
EC50 (human 5-HT2C receptor; [2]): 467 nM

CN1CCc2ccc(Cl)c3c2N(CC1)C1CCCCC31 (stereo not shown) [Example 37, 8-Chloro-3-methyl-2,3,4,5,8b,9,10,11,12,12a-decahydro-1H-[1,4]diazocino[7,8,1-jk]carbazole]
Ki [1]: 11.6 nM
Emax (human 5-HT2C receptor): 70%
EC50 (human 5-HT2C receptor; [2]): 655 nM

Clc1ccc2c3c1c1c(n3CCNCC2)CCC1 [Example 38, 8-Chloro-2,3,4,5,10,11-hexahydro-1H,9H-cyclopenta[b][1,4]diazocino[7,8,1-hi]indole]
Ki [1]: 9.3 nM
EC50 (human 5-HT2C receptor): 87 nM
Emax (human 5-HT2C receptor): 90%

Clc1ccc2c3c1c1c(n3CCNCC2)CCCC1 [Example 39, 8-Chloro-2,3,4,5,9,10,11,12-octahydro-1H-[1,4]diazocino[7,8,1-jk]carbazole]
Ki [1]: 2 nM
EC50 (human 5-HT2C receptor): 48 nM
Emax (human 5-HT2C receptor): 80%

Clc1ccc2c3c1C1CCCC1N3CCNCC2 (stereo not shown) [Example 40, 8-Chloro-2,3,4,5,9,10,11,11a-octahydro-1H,8bH-cyclopenta[b][1,4]diazocino[7,8,1-hi]indole]
Ki [1]: 20 nM
EC50 (human 5-HT2C receptor): 81 nM
Emax (human 5-HT2C receptor): 80%

Clc1ccc2c3c1C1CCCCC1N3CCNCC2 (stereo not shown) [Example 41, 8-Chloro-2,3,4,5,8b,9,10,11,12,12a-decahydro-1H-[1,4]diazocino[7,8,1-jk]carbazole]
Ki [1]: 7.5 nM
EC50 (human 5-HT2C receptor): 91 nM
Emax (human 5-HT2C receptor): 90%
